Key:
[1] = biological target: T1, delta opioid receptor, mouse vas deferens (MVD)(δ) (Mus musculus, UniProt P32300); assay: delta opioid agonist activity in mouse vas deferens (inhibition of electrically-induced contractions); conditions: isolated mouse vas deferens; inhibition of electrically-induced contractions in the presence of 300 nM mu-selective antagonist CTOP; measure of δ agonism
T1 construct: tissue Charles River; host or cells: isolated mouse vas deferens (DC1 strain)
Description: Opioid (delta, mu and kappa) activity was studied in two isolated tissues, the mouse vas deferens (MVD)(δ) and the guinea-pig myentric plexus with attached longitudinal muscle (GPMP)(μ and κ).
MVD (DC1 strain, Charles River, 25-35 g) were suspended in 15 ml organ baths containing Mg^++-free Krebs' buffer of the following composition (mM): NaCl, 119; KCl, 4.7; NaHCO3, 25; KH2PO4, 1.2; CaCl2, 2,5 and glucose, 11. The buffer was gassed with 95% O2 and 5% CO2. The tissues were suspended between platinum electrodes, attached to an isometric transducer with 500 mg tension and stimulated with 0.03 Hz pulses of 1-msec pulse-width at supramaxinal voltage. IC50 values were determined by the regression analysis of concentration-response curves for inhibition of electrically-induced contractions in the presence of 300 nM of the mu-selective antagonist CTOP. This test is a measure of δ agonism.
The delta opioid agonist activity of a number of compounds were determined in mouse vas deferens (as described above) with the following results: […]

T1 sequence (P32300 whole entry): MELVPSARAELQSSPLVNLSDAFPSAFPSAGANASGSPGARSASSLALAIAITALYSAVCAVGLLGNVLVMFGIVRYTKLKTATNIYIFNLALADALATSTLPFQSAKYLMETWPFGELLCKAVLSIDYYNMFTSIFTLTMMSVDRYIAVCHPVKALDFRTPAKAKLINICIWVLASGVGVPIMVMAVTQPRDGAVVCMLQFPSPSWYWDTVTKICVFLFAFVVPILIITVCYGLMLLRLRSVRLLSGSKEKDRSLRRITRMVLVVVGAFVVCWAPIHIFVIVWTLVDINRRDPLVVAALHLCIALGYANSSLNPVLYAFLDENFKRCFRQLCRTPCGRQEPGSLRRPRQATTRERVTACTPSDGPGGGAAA

Row | melting point | Structure (SMILES) | IC50 [1]
1 | 137 to 140 °C | C=CCN1C[C@H](C)N([C@H](c2ccc(-c3nnn(CCOCC(=O)O)n3)cc2)c2cccc(O)c2)C[C@H]1C | –
2 | – | C=CCN1C[C@H](C)N([C@H](c2ccc(-c3nnn[nH]3)cc2)c2cccc(O)c2)C[C@H]1C [Example 1, (+)-5-{4-[(R)-α-(2(S),5(R)-4-Allyl-2,5-dimethyl-1-piperazinyl)-3-hydroxybenzyl]phenyl}-1H-tetrazole] | 0.2 nM
3 | – | C[C@@H]1CN([C@H](c2ccc(-c3nnn[nH]3)cc2)c2cccc(O)c2)[C@@H](C)CN1Cc1ccccc1 [Example 4, (−)-5-{4-[(R)-α-(2(S),5(R)-4-benzyl-2,5-dimethyl-1-piperazinyl)-3-hydroxybenzyl]phenyl}-1H-tetrazole] | 0.0126 nM
4 | – | C=CCN1C[C@H](C)N([C@H](c2ccc(-c3nnn(CCCCC(=O)O)n3)cc2)c2cccc(O)c2)C[C@H]1C [Example 42, (+)-5-(5-{4-[(R)-α-(2(S),5(R)-4-Allyl-2,5-dimethyl-1-piperazinyl)-3-hydroxybenzyl]phenyl}-2-tetrazolyl)valeric Acid] | 0.316 nM

— patent US6514975B1, “Anti-inflammatory piperazinyl-benzyl-tetrazole derivatives and intermediates thereof” (Pfizer Inc, priority 1997, dated 2003)
